In patent publication US11807644B2 (PMV Pharmaceuticals, Inc., priority 2020, dated 2023):

Molecular target: T1, recombinant His-tag Y220C p53 DBD protein (Homo sapiens, UniProt P04637, Y220C)
T1 construct: recombinant His-tag Y220C p53 DBD protein (amino acids #˜94-312)
Assay: In vitro DNA binding activity assay (TR-FRET): binding of His-tag Y220C p53 DBD to biotin-labeled consensus DNA
Type: biochemical
Details: SC150 = concentration to increase DNA binding by […], His-tag Y220C p53 DBD, biotin-labeled consensus DNA
Method: DNA binding activity of the compounds was measured using a TR-FRET (Time-Resolved Fluorescence Resonance Energy Transfer) assay in which recombinant His-tag Y220C p53 DBD protein binds to biotin-labeled consensus DNA. Binding of recombinant His-tag Y220C p53 DBD protein and biotin-labeled consensus DNA was registered by the FRET (fluorescence resonance energy transfer) between allophycocyanin (APC) conjugated anti-His tag antibody and Europium-(Eu) conjugated Streptavidin.
The compounds of TABLES 1-9 (2 mM stock in dimethylsulfoxide) were diluted 3-fold in series in dimethylsulfoxide. 1.2 μL of a compound solution was added to each well of 384-well polypropylene black plates (NUNC). Thirty μL per well of 181 nM recombinant His-tag Y220C p53 DBD protein (amino acids #˜94-312; SEQ ID NO: 1) and 6.1 nM of APC conjugated anti-His tag antibody (Columbia Biosciences) in ice-cold Assay Buffer 1 (50 mM Tris-HCl, pH 7.4, 75 mM KCl, 0.75 mM DTT and 0.2 mg/ml, BSA) were added. As a background control. 30 μL of Assay Buffer 1 containing 6.1 nM of APC anti-His antibody (No Y220C protein) was also added into a second set of serially diluted compound plates. The samples were spun by centrifuge at 1,200 rpm (Eppendorf 5810R Plate centrifuge) for 1 minute and incubated at room temperature (20° C.) for 15 min. The samples were then further incubated at either 27° C. or 29° C. for 60 min. […] The samples were spun by centrifuge at 1,200 rpm for 1 min and incubated at room temperature (20° C.) for 20 min. Assay signals were monitored by reading excitation at 340 nm, and emission fluorescence at 615 nm and 665 nm on an Envision® reader. Normalized TR-FRET (time-resolved fluorescence resonance energy transfer) assay signal (Rn) was calculated by the formula: Rn=[(A−Ba−C×(D−Bd))/(D−Bd)]×(D−Bd) Wherein: • A is the fluorescence intensity of the sample at 665 nm; • D is the fluorescence intensity of the sample at 615 nm; • Ba and Bd are plate backgrounds at 665 nm and 615 nm, respectively; and • Dc is the fluorescence intensity of 0.67 nM Eu-SA in the assay buffer at 615 nm.
The cross-talk factor (C) was determined by the following formula: C=(Ac−Ba)/(Dc−Bd) wherein Ac is the fluorescence intensity of 0.67 nM Europium (Eu) conjugated Streptavidin in the assay buffer at 665 nm.

Y220C SC150 (μM) | SMILES
* (* = 0 μM ≤ SC150 < 0.1 μM) | CN1CC[C@@H](Nc2cccc3c2cc(-c2noc(CNC(=O)[C@@H]4C[C@@H]4C#N)n2)n3CC(F)(F)F)[C@@H](F)C1 (mixture of isomers) [Compound 195B, (1RS,2SR)-2-cyano-N-{[3-(4-{[(3S,4R)-3-fluoro-1-methylpiperidin-4-yl]amino}-1-(2,2,2-trifluoroethyl)-1H-indol-2-yl)-1,2,4-oxadiazol-5-yl]methyl}cyclopropane-1-carboxamide]
** (** = 0.1 μM ≤ SC150 < 0.5 μM) | COc1cc(S(C)(=O)=O)ccc1NCc1nnc(-c2cc3c(N[C@H]4CCN(C)C[C@H]4F)cccc3n2CC(F)(F)F)s1 (racemic) [Compound 27B, (+/−)-N-[(3R,4S)-3-fluoro-1-methylpiperidin-4-yl]-2-(5-{[(4-methanesulfonyl-2-methoxyphenyl)amino]methyl}-1,3,4-thiadiazol-2-yl)-1-(2,2,2-trifluoroethyl)-1H-indol-4-amine]
* (* = 0 μM ≤ SC150 < 0.1 μM) | COc1cc(S(C)(=O)=O)ccc1NCc1nnc(-c2cc3c(N[C@H]4CCN(C)C[C@@H]4F)cccc3n2CC(F)(F)F)s1 (racemic) [Compound 28B, (+/−)-N-[(3R,4R)-3-fluoro-1-methylpiperidin-4-yl]-2-(5-{[(4-methanesulfonyl-2-methoxyphenyl)amino]methyl}-1,3,4-thiadiazol-2-yl)-1-(2,2,2-trifluoroethyl)-1H-indol-4-amine]
** (** = 0.1 μM ≤ SC150 < 0.5 μM) | CN1CC[C@H](Nc2cccc3c2cc(-c2nnc(CNC(=O)C4CCCC4)s2)n3CC(F)(F)F)[C@H](F)C1 (racemic) [Compound 29B, (+/−)-N-{[5-(4-{[(3R,4S)-3-fluoro-1-methylpiperidin-4-yl]amino}-1-(2,2,2-trifluoroethyl)-1H-indol-2-yl)-1,3,4-thiadiazol-2-yl]methyl}cyclopentanecarboxamide]
* (* = 0 μM ≤ SC150 < 0.1 μM) | CN1CC[C@H](Nc2cccc3c2cc(-c2nnc(CNC(=O)c4cccs4)s2)n3CC(F)(F)F)[C@H](F)C1 (racemic) [Compound 30B, (+/−)-N-{[5-(4-{[(3R,4S)-3-fluoro-1-methylpiperidin-4-yl]amino}-1-(2,2,2-trifluoroethyl)-1H-indol-2-yl)-1,3,4-thiadiazol-2-yl]methyl}thiophene-2-carboxamide]
** (** = 0.1 μM ≤ SC150 < 0.5 μM) | CN1CCC(Nc2cccc3c2cc(-c2nnc(CNC(=O)C4CC4(F)F)s2)n3CC(F)(F)F)CC1 (racemic) [Compound 32B, (+/−)-2,2-difluoro-N-[(5-{4-[(1-methylpiperidin-4-yl)amino]-1-(2,2,2-trifluoroethyl)-1H-indol-2-yl}-1,3,4-thiadiazol-2-yl)methyl]cyclopropane-1-carboxamide]
** (** = 0.1 μM ≤ SC150 < 0.5 μM) | C[C@H]1C[C@H]1C(=O)NCc1nnc(-c2cc3c(NC4CCN(C)CC4)cccc3n2CC(F)(F)F)s1 (racemic) [Compound 33B, (+/−)-(1R,2S)-2-methyl-N-[(5-{4-[(1-methylpiperidin-4-yl)amino]-1-(2,2,2-trifluoroethyl)-1H-indol-2-yl}-1,3,4-thiadiazol-2-yl)methyl]cyclopropane-1-carboxamide]
* (* = 0 μM ≤ SC150 < 0.1 μM) | C[C@@H]1C[C@H]1C(=O)NCc1nnc(-c2cc3c(NC4CCN(C)CC4)cccc3n2CC(F)(F)F)s1 (racemic) [Compound 34B, (+/−)-(1R,2R)-2-methyl-N-[(5-{4-[(1-methylpiperidin-4-yl)amino]-1-(2,2,2-trifluoroethyl)-1H-indol-2-yl}-1,3,4-thiadiazol-2-yl)methyl]cyclopropane-1-carboxamide]
** (** = 0.1 μM ≤ SC150 < 0.5 μM) | CN1CC[C@@H](Nc2cccc3c2cc(-c2nnc(CNC(=O)C4COC4)s2)n3CC(F)(F)F)[C@@H](F)C1 (racemic) [Compound 36B, (+/−)-N-{[5-(4-{[(3R,4S)-3-fluoro-1-methylpiperidin-4-yl]amino}-1-(2,2,2-trifluoroethyl)-1H-indol-2-yl)-1,3,4-thiadiazol-2-yl]methyl}oxetane-3-carboxamide]
** (** = 0.1 μM ≤ SC150 < 0.5 μM) | CN1CC[C@@H](Nc2cccc3c2cc(-c2nnc(CNC(=O)C4CCC4)s2)n3CC(F)(F)F)[C@@H](F)C1 (racemic) [Compound 37B, (+/−)-N-{[5-(4-{[(3R,4S)-3-fluoro-1-methylpiperidin-4-yl]amino}-1-(2,2,2-trifluoroethyl)-1H-indol-2-yl)-1,3,4-thiadiazol-2-yl]methyl}cyclobutanecarboxamide]
* (* = 0 μM ≤ SC150 < 0.1 μM) | COC(=O)NCc1nnc(-c2cc3c(N[C@@H]4CCN(C)C[C@@H]4F)cccc3n2CC(F)(F)F)s1 (racemic) [Compound 38B, (+/−)-methyl N-{[5-(4-{[(3R,4S)-3-fluoro-1-methylpiperidin-4-yl]amino}-1-(2,2,2-trifluoroethyl)-1H-indol-2-yl)-1,3,4-thiadiazol-2-yl]methyl}carbamate]
*** (*** = 0.5 μM ≤ SC150 < 1 μM) | CN1CCC(C(=O)NCc2nnc(-c3cc4c(N[C@@H]5CCN(C)C[C@@H]5F)cccc4n3CC(F)(F)F)s2)CC1 (racemic) [Compound 40B, (+/−)-N-{[5-(4-{[(3R,4S)-3-fluoro-1-methylpiperidin-4-yl]amino}-1-(2,2,2-trifluoroethyl)-1H-indol-2-yl)-1,3,4-thiadiazol-2-yl]methyl}-1-methylpiperidine-4-carboxamide]
**** (**** = 1 μM ≤ SC150 < 10 μM) | CNCc1nnc(-c2cc3c(N[C@@H]4CCN(C)C[C@@H]4F)cccc3n2CC(F)(F)F)s1 (racemic) [Compound 43B, (+/−)-N-[(3R,4S)-3-fluoro-1-methylpiperidin-4-yl]-2-{5-[(methylamino)methyl]-1,3,4-thiadiazol-2-yl}-1-(2,2,2-trifluoroethyl)-1H-indol-4-amine]
* (* = 0 μM ≤ SC150 < 0.1 μM) | CN1CC[C@@H](Nc2cccc3c2cc(-c2nnc(CNC(=O)OCc4ccccc4)s2)n3CC(F)(F)F)[C@@H](F)C1 (racemic) [Compound 44B, (+/−)-benzyl N-{[5-(4-{[(3R,4S)-3-fluoro-1-methylpiperidin-4-yl]amino}-1-(2,2,2-trifluoroethyl)-1H-indol-2-yl)-1,3,4-thiadiazol-2-yl]methyl}carbamate]

Same assay, conditions: concentration to increase DNA binding by […], incubated at either 27° C. or 29° C. for 60 min

SC150 (μM) | SMILES
++++ (++++ = 10 μM ≤ SC150 < 35 μM) | CN1CC[C@H](Nc2cccc3c2cc(-c2ccc(CNC4CC4)cc2)n3CC(F)(F)F)[C@H](F)C1 (racemic) [Compound 42A, (+/−)-2-{4-[(cyclopropylamino)methyl]phenyl}-N-[(3R,4S)-3-fluoro-1-methylpiperidin-4-yl]-1-(2,2,2-trifluoroethyl)-1H-indol-4-amine]
+ (+ = 0 μM ≤ SC150 < 2 μM) | COc1cc(S(C)(=O)=O)ccc1NCc1ccc(-c2cc3c(N[C@H]4CCN(C)C[C@H]4F)cccc3n2CC(F)(F)F)cc1 (racemic) [Compound 43A, (+/−)-N-[(3R,4S)-3-fluoro-1-methylpiperidin-4-yl]-2-(4-{[(4-methanesulfonyl-2-methoxyphenyl)amino]methyl}phenyl)-1-(2,2,2-trifluoroethyl)-1H-indol-4-amine]
+ (+ = 0 μM ≤ SC150 < 2 μM) | CN1CC[C@H](Nc2cccc3c2cc(-c2ccc(CNC(=O)c4ccccc4)cc2)n3CC(F)(F)F)[C@H](F)C1 (racemic) [Compound 45A, (+/−)-N-{[4-(4-{[(3R,4S)-3-fluoro-1-methylpiperidin-4-yl]amino}-1-(2,2,2-trifluoroethyl)-1H-indol-2-yl)phenyl]methyl}benzamide]
